# From PubChem BioAssay (NCI)
#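 Briefly, cells in 96-well plates were exposed to five compound concentrations for 48 h, and endpoints were estimated by linear interpolation. GI50 is the concentration that inhibits growth by half. TGI marks complete inhibition of growth.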
# Legend:
# Assay in all cases: NCI tumour cell line growth inhibition, 48 h
# [1] = test system: HL-60(TB) leukemia
# [2] = test system: EKVX NSCLC
# [3] = test system: MOLT-4 leukemia
# [4] = test system: HS 578T breast
# [5] = test system: SK-OV-3 ovarian
# [6] = test system: NCI-H23 lung
# [7] = test system: SK-MEL-2 melanoma
# [8] = test system: DU-145 prostate
# [9] = test system: SK-MEL-5 melanoma
# [10] = test system: CAKI-1 renal
SMILES,GI50 [1] [µM],TGI [1] [µM],GI50 [2] [µM],TGI [2] [µM],GI50 [3] [µM],TGI [3] [µM],GI50 [4] [µM],TGI [4] [µM],GI50 [5] [µM],TGI [5] [µM],GI50 [6] [µM],TGI [6] [µM],GI50 [7] [µM],TGI [7] [µM],GI50 [8] [µM],TGI [8] [µM],GI50 [9] [µM],TGI [9] [µM],GI50 [10] [µM],TGI [10] [µM]
O=C(Nc1nc2ccc(C(F)(F)F)cc2s1)c1cc(Cl)ccc1O,1.04,3.7,0.37,39,0.684,13.4,1.23,> 100,0.497,4.77,0.367,9.53,0.798,6.09,1.59,> 100,0.234,0.684,,
CCC[CH2][Sn]1([CH2]CCC)[O]N=C(c2ccccc2)C(c2ccccc2)[O]1 (centres undefined),0.263,1.42,1.16,3.01,1.81,6.52,,,3.84,12.7,1.28,2.64,1.27,2.53,,,1.62,3.23,0.97,2.4
CCCN=C(N)NC#N,,> 100,,> 100,,> 100,,,,> 100,,> 100,,> 100,,,,> 100,,> 100
COc1cc2nc(-c3ccc(Cl)cc3)cc(OCCCN3CCCCC3)c2cc1OC,,,1.47,> 100,,,2.11,7.18,,,2.95,> 100,,,2.54,> 100,1.1,2.32,0.287,2.54
CCN(CC)CCOc1ccc(-c2nc3cc(Cl)ccc3s2)cc1,1.56,5.12,,,2.24,10.9,1.62,3.72,1.77,3.84,1.64,3.32,1.89,3.59,,,1.54,2.88,1.47,2.84
[Cl][Hg][c]1cc(Br)cc(Br)c1,1.95,4.24,2.21,4.78,1.77,5.41,1.58,7.07,4.07,13,2.65,9.02,1.97,5.66,2.77,10.6,1.54,3.04,,
Cn1cc(CO)c2c1C(=O)C=C(N1CC1)C2=O,2.68,18.1,0.214,1.15,2.64,> 100,0.017,0.0472,0.0413,1.31,< 0.01,< 0.0215,,,< 0.01,0.131,< 0.01,< 0.01,< 0.01,< 0.0125
C=C1C(=O)OC2CCN3CC=C(COC(=O)C(C)(O)C4(CO4)C1C)C23 (centres undefined),,,,> 100,,> 100,,> 100,,> 100,,> 100,,> 100,,> 100,,> 100,,> 100
COc1ccc(/C=C(/C(=O)N2CCN(c3ccccc3)CC2)c2cc(OC)c(OC)c(OC)c2)cc1O,0.239,0.575,0.631,> 100,0.368,> 100,0.712,> 100,0.586,> 100,0.938,> 100,0.387,86.5,0.451,> 100,0.361,11.8,,
CN1CCN(CCOc2ccc(-c3cnc4c(-c5ccccc5F)cnn4c3)cc2)CC1,,,1.65,3.37,1.79,4.36,2,5.22,,,1.7,3.19,1.86,3.57,1.65,3.07,1.63,3,1.56,2.9
NNC(=S)N/N=C(\CC1OC(=O)c2ccccc21)c1ccccc1O (centres undefined),,> 100,,> 100,,75.6,,,,> 100,,> 100,,> 100,,,,> 100,,> 100
CN(C)N=Nc1ccc(NC=O)cc1,,> 100,,> 100,,> 100,,,,> 100,,,,> 100,,> 100,,> 100,,> 100
COC(=O)C1=C(O)c2cc(OC)c(OC)cc2C(c2ccc(OC)c(OC)c2)C1 (centres undefined),,> 100,,> 100,,> 100,,,,> 100,,> 100,,> 100,,,,> 100,,> 100
C=C(CNCc1ccccc1)c1ccc(C(=O)Nc2ccccc2N)cc1,1.2,> 100,32.5,> 100,,,15.2,> 100,4.22,22.8,2.37,8.23,5.49,> 100,5.05,> 100,4.66,17.4,5.35,32.5
O=C(O)CCC(=O)c1ccc[nH]1,,,,> 100,,> 100,,> 100,,> 100,,> 100,,> 100,,> 100,,> 100,,> 100
CCCCC(C(=O)C(=O)NC1C2CC3CC(C2)CC1C3)C(=O)C(C)C (centres undefined),,> 100,,> 100,,> 100,,,,> 100,,> 100,,> 100,,,,> 100,,> 100
O=C(OC(CNc1cc(=O)n(Cc2ccccc2)c(=O)n1Cc1ccccc1)CN1CCCC1)c1ccccc1 (centres undefined),,,> 100,> 100,> 100,> 100,> 100,> 100,> 100,> 100,> 100,> 100,> 100,> 100,1.9,> 100,> 100,> 100,> 100,> 100
CN(C)c1nc2ccccc2[nH]1,,> 100,,> 100,,> 100,,,,> 100,,> 100,,> 100,,,,> 100,,> 100
